Measurements reported in patent US11491148B2, “Amide derivatives useful in the treatment of HBV infection or HBV-induced diseases” (Janssen Sciences Ireland Unlimited Company, priority 2019, dated 2022).
Where a name gives a salt, the structure may show the parent alone. Read-outs that look alike come from different tables or passages of the source.

What was measured:
HBV = test: Anti-HBV activity, intracellular HBV DNA by real-time PCR (HBV-AVE-HepG2.117); assay type: cell-based, Hepatitis B virus; details: read-out: HBV-AVE-HepG2.117 EC50 (μM; mean value)
Method: The anti HBV activity was measured using the HepG2.117 cell line, a stable, inducible HBV producing cell line, which replicates HBV in the absence of doxicycline (Tet-off system). The HepG2 cell line is available from ATCC®) under number HB-8065. Transfection of the HepG2 cell line can be as described in Sun and Nassal 2006 Journal of Hepatology 45 (2006) 636-645 “Stable HepG2- and Huh7-based human hepatoma cell lines for efficient regulated expression of infectious hepatitis B virus”.
For the antiviral assay, HBV replication was induced, followed by a treatment with serially diluted compound in 96-well plates. After 3 days of treatment, the antiviral activity was determined by quantification of intracellular HBV DNA using real-time PCR and an HBV specific primer set and probe.

[1] = Cytotoxicity, ATPlite cell viability (TOX-HepG2.117); assay type: cell-based, human; details: human; HepG2.117 cells, incubated for 3 days, ATPlite, mean value
Method: Cytotoxicity of the compounds was tested using HepG2 or HepG2.117 cells, incubated for 3 days in the presence of compounds. The viability of the cells was assessed using the Perkin Elmer ATPlite Luminescence Assay System.”

[2] = Hepatitis B virus, HepG2.117, 72 h, HepG2.117 cell line, 3 days of treatment, intracellular HBV DNA, mean value
[3] = Hepatitis B virus, HepG2.117, 72 h

`C[C@H]1[C@@H](C(=O)Nc2ccc(Cl)c(Cl)c2)CCN1C(=O)C(=O)N[C@H](CC(F)(F)F)c1c[nH]nn1` (single isomer, unassigned) [C25R*] showed an EC50 (HBV; [2]) of 0.017 µM and a CC50 at 3 days [1] of 25.7 µM.
Compound `C[C@H]1[C@@H](C(=O)Nc2ccc(Cl)c(Cl)c2)CCN1C(=O)C(=O)N[C@@H](CC(F)(F)F)c1c[nH]nn1` (single isomer, unassigned) [C25S*] has an EC50 (HBV; [2]) of 0.074 µM and a CC50 at 3 days [1] of over 50 µM.
Compound `C[C@H]1[C@@H](C(=O)Nc2ccc(F)c(C#N)c2)CCN1C(=O)C(=O)N[C@H](CC(F)(F)F)c1c[nH]nn1` (single isomer, unassigned) [C28R*] has an EC50 (HBV; [2]) of 0.032 µM and a CC50 at 3 days [1] of over 50 µM.
`C[C@H]1[C@@H](C(=O)Nc2ccc(F)c(C#N)c2)CCN1C(=O)C(=O)N[C@@H](CC(F)(F)F)c1c[nH]nn1` (single isomer, unassigned) [C28S*] showed an EC50 (HBV; [2]) of 0.07 µM and a CC50 at 3 days [1] of over 50 µM.
`C[C@H]1[C@@H](C(=O)Nc2cc(F)c(F)c(F)c2)CCN1C(=O)C(=O)N[C@H](CC(F)(F)F)c1c[nH]nn1` (single isomer, unassigned) [C29R*] showed an EC50 (HBV; [2]) of 0.014 µM and a CC50 at 3 days [1] of over 50 µM.
For `C[C@H]1[C@@H](C(=O)Nc2cc(F)c(F)c(F)c2)CCN1C(=O)C(=O)N[C@@H](CC(F)(F)F)c1c[nH]nn1` (single isomer, unassigned) [C29S*], the EC50 (HBV; [2]) was 0.042 µM and the CC50 at 3 days [1] was over 50 µM.
Work on `C[C@H]1[C@@H](C(=O)Nc2ccc(F)c(C(F)(F)F)c2)CCN1C(=O)C(=O)N[C@H](CC(F)(F)F)c1c[nH]nn1` (single isomer, unassigned) [C30R*] yielded an EC50 (HBV; [2]) of 0.037 µM and a CC50 at 3 days [1] of over 50 µM.
`C[C@H]1[C@@H](C(=O)Nc2ccc(F)c(C(F)(F)F)c2)CCN1C(=O)C(=O)N[C@@H](CC(F)(F)F)c1c[nH]nn1` (single isomer, unassigned) [C30S*] gave an EC50 (HBV; [2]) of 0.06 µM and a CC50 at 3 days [1] of over 50 µM.
`C[C@H]1[C@@H](C(=O)Nc2ccc(F)c(C(F)F)c2F)CCN1C(=O)C(=O)N[C@H](CC(F)(F)F)c1c[nH]nn1` (single isomer, unassigned) [C31R*] gave an EC50 (HBV; [2]) of 0.021 µM and a CC50 at 3 days [1] of over 50 µM.
In the case of `C[C@H]1[C@@H](C(=O)Nc2ccc(F)c(C(F)F)c2F)CCN1C(=O)C(=O)N[C@@H](CC(F)(F)F)c1c[nH]nn1` (single isomer, unassigned) [C31S*], the EC50 (HBV; [2]) is reported as 0.056 µM and the CC50 at 3 days [1] is reported as over 50 µM.
In the case of `C[C@H]1[C@@H](C(=O)Nc2cc(F)c(F)c(Cl)c2)CCN1C(=O)C(=O)N[C@H](CC(F)(F)F)c1c[nH]nn1` (single isomer, unassigned) [C32R*], the EC50 (HBV; [2]) is reported as 0.007 µM and the CC50 at 3 days [1] is reported as over 50 µM.
Compound `C[C@H]1[C@@H](C(=O)Nc2cc(F)c(F)c(Cl)c2)CCN1C(=O)C(=O)N[C@@H](CC(F)(F)F)c1c[nH]nn1` (single isomer, unassigned) [C32S*] has an EC50 (HBV; [2]) of 0.031 µM and a CC50 at 3 days [1] of over 50 µM.
`C[C@H]1[C@@H](C(=O)Nc2cc(F)c(F)c(F)c2)CCN1C(=O)C(=O)N[C@](C)(CC(F)F)c1c[nH]nn1` (single isomer, unassigned) [C33R*] showed an EC50 (HBV; [2]) of 0.034 µM and a CC50 at 3 days [1] of over 50 µM.
In the case of `C[C@H]1[C@@H](C(=O)Nc2cc(F)c(F)c(F)c2)CCN1C(=O)C(=O)N[C@@](C)(CC(F)F)c1c[nH]nn1` (single isomer, unassigned) [C33S*], the EC50 (HBV; [2]) is reported as 0.04 µM and the CC50 at 3 days [1] is reported as over 50 µM.
Work on `C[C@H]1[C@@H](C(=O)Nc2ccc(F)c(Cl)c2)CCN1C(=O)C(=O)N[C@H](CC(F)(F)F)c1c[nH]nn1` (single isomer, unassigned) [C34R*] yielded an EC50 (HBV; [2]) of 0.003 µM and a CC50 at 3 days [1] of over 50 µM.
`C[C@H]1[C@@H](C(=O)Nc2ccc(F)c(Cl)c2)CCN1C(=O)C(=O)N[C@@H](CC(F)(F)F)c1c[nH]nn1` (single isomer, unassigned) [C34S*] showed an EC50 (HBV; [2]) of 0.035 µM and a CC50 at 3 days [1] of over 50 µM.
`C[C@H]1[C@@H](C(=O)Nc2ccc(F)c(Cl)c2F)CCN1C(=O)C(=O)N[C@H](CC(F)(F)F)c1c[nH]nn1` (single isomer, unassigned) [C37R*] showed an EC50 (HBV; [2]) of 0.014 µM and a CC50 at 3 days [1] of over 50 µM.
In the case of `C[C@H]1[C@@H](C(=O)Nc2ccc(F)c(Cl)c2F)CCN1C(=O)C(=O)N[C@@H](CC(F)(F)F)c1c[nH]nn1` (single isomer, unassigned) [C37S*], the EC50 (HBV; [2]) is reported as 0.043 µM and the CC50 at 3 days [1] is reported as over 50 µM.
Work on `N#Cc1cc(NC(=O)[C@H]2CCN(C(=O)C(=O)NC3(c4c[nH]nn4)CC(F)(F)C3)C2)ccc1F` [C1, (3S)—N-(3-Cyano-4-fluorophenyl)-1-[{[3,3-difluoro-1-(1H-1,2,3-triazol-4-yl)cyclobutyl]amino}(oxo)acetyl]pyrrolidine-3-carboxamide] yielded an EC50 (HBV; [2]) of 0.15 µM and a CC50 at 3 days [1] of over 50 µM.
In the case of `N#Cc1cc(NC(=O)[C@H]2CCN(C(=O)C(=O)NC3(c4c[nH]nn4)CC(F)(F)C3)C2)ccc1F` [C1•HCl, (3S)—N-(3-Cyano-4-fluorophenyl)-1-[{[3,3-difluoro-1-(1H-1,2,3-triazol-4-yl)cyclobutyl]amino}(oxo)acetyl]pyrrolidine-3-carboxamide hydrochloride], the EC50 (HBV; HepG2.117 cell line, 3 days of treatment, intracellular HBV DNA, mean value, hydrochloride) is reported as 0.27 µM.
In the case of `Cc1cc(NC(=O)[C@H]2CCN(C(=O)C(=O)NC3(c4c[nH]nn4)CC(F)(F)C3)C2)ccc1F` [C2, (3S)-1-[{[3,3-Difluoro-1-(1H-1,2,3-triazol-4-yl)cyclobutyl]amino}(oxo)acetyl]-N-(4-fluoro-3-methylphenyl)pyrrolidine-3-carboxamide], the EC50 (HBV; [2]) is reported as 0.079 µM and the CC50 at 3 days [1] is reported as over 50 µM.
`C[C@H]1[C@@H](C(=O)Nc2cc(F)c(F)c(F)c2)CCN1C(=O)C(=O)NC1(c2c[nH]nn2)CC(F)(F)C1` [C3, (2S,3S)-1-[{[3,3-Difluoro-1-(1H-1,2,3-triazol-4-yl)cyclobutyl]amino}(oxo)acetyl]-2-methyl-N-(3,4,5-trifluorophenyl)pyrrolidine-3-carboxamide] gave an EC50 (HBV; [3]) of 0.011 µM and a CC50 at 3 days [1] of over 50 µM.
Work on `O=C(NC1(c2c[nH]nn2)CC(F)(F)C1)C(=O)N1CC[C@H](C(=O)Nc2cc(F)c(F)c(F)c2)C1` [C4, (3S)-1-[{[3,3-Difluoro-1-(1H-1,2,3-triazol-4-yl)cyclobutyl]amino}(oxo)acetyl]-N-(3,4,5-trifluorophenyl)pyrrolidine-3-carboxamide] yielded an EC50 (HBV; [2]) of 0.053 µM and a CC50 at 3 days [1] of over 50 µM.
`O=C(NC1(c2c[nH]nn2)CC(F)(F)C1)C(=O)N1CC[C@H](C(=O)Nc2ccc(F)c(Cl)c2)C1` [C5, (3S)—N-(3-Chloro-4-fluorophenyl)-1-[{[3,3-difluoro-1-(1H-1,2,3-triazol-4-yl)cyclobutyl]amino}(oxo)acetyl]pyrrolidine-3-carboxamide] gave an EC50 (HBV; [3]) of 0.04 µM and a CC50 at 3 days [1] of over 50 µM.
With `C[C@H]1[C@@H](C(=O)Nc2ccc(F)c(C#N)c2)CCN1C(=O)C(=O)NC1(c2c[nH]nn2)CC(F)(F)C1` [C6, (2S,3S)—N-(3-Cyano-4-fluorophenyl)-1-[{[3,3-difluoro-1-(1H-1,2,3-triazol-4-yl)cyclobutyl]amino}(oxo)acetyl]-2-methylpyrrolidine-3-carboxamide] the EC50 (HBV; [3]) was 0.044 µM and the CC50 at 3 days [1] was over 50 µM.
Work on `O=C(NC1(c2c[nH]nn2)CC(F)(F)C1)C(=O)N1CC[C@H](C(=O)Nc2ccc(Cl)c(Cl)c2)C1` [C7] yielded an EC50 (HBV; [2]) of 0.1 µM and a CC50 at 3 days [1] of over 50 µM.
Work on `O=C(NC1(c2c[nH]nn2)CC(F)(F)C1)C(=O)N1CC[C@H](C(=O)Nc2cc(F)c(F)c(Cl)c2)C1` [C8] yielded an EC50 (HBV; [2]) of 0.045 µM and a CC50 at 3 days [1] of over 50 µM.
Work on `C[C@@H]1CN(C(=O)C(=O)NC2(c3c[nH]nn3)CC(F)(F)C2)C[C@H]1C(=O)Nc1cc(F)c(F)c(F)c1` [C9] yielded an EC50 (HBV; [2]) of 0.204 µM and a CC50 at 3 days [1] of over 50 µM.
For `C[C@H]1CN(C(=O)C(=O)NC2(c3c[nH]nn3)CC(F)(F)C2)C[C@H]1C(=O)Nc1cc(F)c(F)c(F)c1` [C10], the EC50 (HBV; [2]) was 0.578 µM and the CC50 at 3 days [1] was over 50 µM.
